In patent EP0908457B1, “3-(1,2-benzisothiazol- and isoxazol-5-Y1)-2,4(1H,3H)-pyrimidinedione or thione and 3-(1,2-benzisothiazol- and isoxazol-5-y1)-4(3H)-pyrimidinone or thione herbicidal agents” (BASF AKTIENGESELLSCHAFT, priority 1997, dated 1999):

Key:
[1] = system: Cyperus serotinus, Rottb.; test: Preemergence weed control under flooded paddy conditions, CYPSE (Flatsedge); format: in vivo; details: preemergence
[2] = system: Echinochloa oryzoides (Ard.) Fritsch.; test: Preemergence weed control under flooded paddy conditions, ECHORC (Watergrass (Calif.)); format: in vivo; details: preemergence, flooded paddy
[3] = system: Oryza sativa, (L.) Tebonnet; test: Rice tolerance to post-transplant applications under flooded paddy conditions (Example 187), ORYSAT (Rice, Tebonnet)
Sagittaria pygmaea, L. = test: Preemergence weed control under flooded paddy conditions, SAGPY (Arrowhead (Pygmaea)); format: in vivo; details: preemergence, flooded paddy
Cyperus iria = test: Preemergence weed control under flooded paddy conditions, CYPIR (Rice Flatsedge); format: in vivo; details: preemergence, flooded paddy
[4] = system: Monochoria vaginalis, Presl.; test: Preemergence weed control under flooded paddy conditions, MOOVA (Monochoria); format: in vivo; details: preemergence, flooded paddy
[5] = Rate 0.0320 kg/ha, rated three to four weeks after treatment
[6] = Rate 0.0620 kg/ha, rated three to four weeks after treatment
[7] = Rate 0.1250 kg/ha, rated three to four weeks after treatment
[8] = Rate 0.2500 kg/ha, rated three to four weeks after treatment
[9] = Rate 0.5000 kg/ha, rated three to four weeks after treatment
[10] = Rate 0.0320 kg/ha, rated 3-4 weeks after treatment
[11] = Rate 0.0620 kg/ha, rated 3-4 weeks after treatment
[12] = Rate 0.1250 kg/ha, rated 3-4 weeks after treatment
[13] = Rate 0.2500 kg/ha, rated 3-4 weeks after treatment
[14] = Rate 0.5000 kg/ha, rated 3-4 weeks after treatment
Note: meaning of each grade not given here.

**Q.** What does the source list for `Cn1c(C(F)(F)F)cc(=O)n(-c2ccc3snc(/C=C/CBr)c3c2)c1=O` [Example 360, 2,4(1H,3H)-Pyrimidinedione, 3-[3-(3-bromopropenyl)-1,2-benzisothiazol-5-yl]-1-methyl-6-(trifluoromethyl)-, (E)-]?
**A.** herbicidal effect rating, CYPSE [1, 5]: 0.0; herbicidal effect rating, CYPSE [1, 6]: 0.0; herbicidal effect rating, CYPSE [1, 7]: 0.0; herbicidal effect rating, CYPSE [1, 8]: 9.0; herbicidal effect rating, ECHORC [2, 5]: 0.0; herbicidal effect rating, ECHORC [2, 6]: 2.0; herbicidal effect rating, ECHORC [2, 7]: 5.0; herbicidal effect rating, ECHORC [2, 8]: 7.5; herbicidal effect rating, ECHORC [2, 9]: 9.0; herbicidal effect rating ORYSAT [3, 5]: 1.0; herbicidal effect rating ORYSAT [3, 6]: 2.0; herbicidal effect rating ORYSAT [3, 7]: 3.5; herbicidal effect rating ORYSAT [3, 8]: 9.0; herbicidal effect rating ORYSAT [3, 9]: 9.0; herbicidal effect rating, SAGPY (Sagittaria pygmaea, L.; [5]): 1.5; herbicidal effect rating, SAGPY (Sagittaria pygmaea, L.; [6]): 4.5; herbicidal effect rating, SAGPY (Sagittaria pygmaea, L.; [7]): 4.5; herbicidal effect rating, SAGPY (Sagittaria pygmaea, L.; [8]): 9.0; herbicidal effect rating, SAGPY (Sagittaria pygmaea, L.; [9]): 9.0; herbicidal effect rating, CYPIR (Cyperus iria; [5]): 0.0; herbicidal effect rating, CYPIR (Cyperus iria; [6]): 2.5; herbicidal effect rating, CYPIR (Cyperus iria; [7]): 9.0; herbicidal effect rating, CYPIR (Cyperus iria; [8]): 9.0; herbicidal effect rating, CYPIR (Cyperus iria; [9]): 9.0; herbicidal effect rating, MOOVA [4, 5]: 4.5; herbicidal effect rating, MOOVA [4, 6]: 4.5; herbicidal effect rating, MOOVA [4, 7]: 4.5; herbicidal effect rating, MOOVA [4, 8]: 9.0; herbicidal effect rating, MOOVA [4, 9]: 9.0

**Q.** With `CNC(=O)COc1ccc(C)cc1-c1nsc2ccc(-n3c(=O)cc(C(F)(F)F)n(C)c3=O)cc12` [Example 561, Acetamide, 2-{{2-{5-[3,6-dihydro-3-methyl-2,6-dioxo-4-(trifluoromethyl)-1(2H)-pyrimidinyl]-1,2-benzisothiazol-3-yl}-p-tolyl}oxy}-N-methyl-] as the compound, how does the “herbicidal effect rating, CYPSE” value [1, 10] read?
**A.** 0.0

**Q.** What about the “herbicidal effect rating, CYPSE” value [1, 11] of the same compound?
**A.** 0.0

**Q.** And the “herbicidal effect rating, CYPSE” value [1, 12]?
**A.** 0.0

**Q.** What about the “herbicidal effect rating, CYPSE” value [1, 13] of the same compound?
**A.** 0.0

**Q.** And the “herbicidal effect rating, CYPSE” value [1, 14]?
**A.** 9.0

**Q.** What about the “herbicidal effect rating, ECHORC” value [2, 10] of the same compound?
**A.** 3.6

**Q.** What about the “herbicidal effect rating, ECHORC” value [2, 11] of the same compound?
**A.** 4.8

**Q.** And the “herbicidal effect rating, ECHORC” value [2, 12]?
**A.** 6.4

**Q.** What about the “herbicidal effect rating, ECHORC” value [2, 13] of the same compound?
**A.** 9.0

**Q.** And the “herbicidal effect rating, ECHORC” value [2, 14]?
**A.** 9.0

**Q.** And the “herbicidal effect rating ORYSAT” value [3, 10]?
**A.** 2.5

**Q.** And the “herbicidal effect rating ORYSAT” value [3, 11]?
**A.** 4.0

**Q.** And the “herbicidal effect rating ORYSAT” value [3, 12]?
**A.** 3.5

**Q.** And the “herbicidal effect rating ORYSAT” value [3, 13]?
**A.** 4.5

**Q.** What about the “herbicidal effect rating ORYSAT” value [3, 14] of the same compound?
**A.** 2.0

**Q.** What about the “herbicidal effect rating, SAGPY” value (Sagittaria pygmaea, L.; [10]) of the same compound?
**A.** 0.0

**Q.** What about the “herbicidal effect rating, SAGPY” value (Sagittaria pygmaea, L.; [11]) of the same compound?
**A.** 0.0

**Q.** And the “herbicidal effect rating, SAGPY” value (Sagittaria pygmaea, L.; [12])?
**A.** 1.0

**Q.** And the “herbicidal effect rating, SAGPY” value (Sagittaria pygmaea, L.; [13])?
**A.** 3.0

**Q.** What about the “herbicidal effect rating, SAGPY” value (Sagittaria pygmaea, L.; [14]) of the same compound?
**A.** 0.0

**Q.** What about the “herbicidal effect rating, CYPIR” value (Cyperus iria; [10]) of the same compound?
**A.** 3.0

**Q.** What about the “herbicidal effect rating, CYPIR” value (Cyperus iria; [11]) of the same compound?
**A.** 6.0

**Q.** What about the “herbicidal effect rating, CYPIR” value (Cyperus iria; [12]) of the same compound?
**A.** 8.5

**Q.** And the “herbicidal effect rating, CYPIR” value (Cyperus iria; [13])?
**A.** 9.0

**Q.** And the “herbicidal effect rating, CYPIR” value (Cyperus iria; [14])?
**A.** 6.0

**Q.** What about the “herbicidal effect rating, MOOVA” value [4, 10] of the same compound?
**A.** 9.0

**Q.** And the “herbicidal effect rating, MOOVA” value [4, 11]?
**A.** 9.0

**Q.** And the “herbicidal effect rating, MOOVA” value [4, 12]?
**A.** 9.0

**Q.** And the “herbicidal effect rating, MOOVA” value [4, 13]?
**A.** 9.0

**Q.** And the “herbicidal effect rating, MOOVA” value [4, 14]?
**A.** 9.0

**Q.** `COCC(C)OC(=O)C(C)(C)Oc1ccc(C)cc1-c1nsc2ccc(-n3c(=O)cc(C(F)(F)F)n(C)c3=O)cc12` (centres unmarked) [Example 532, Propionic acid, 2-{{2-{5-[3,6-dihydro-3-methyl-2,6-dioxo-4-(trifluoromethyl)-1(2H)-pyrimidinyl]-1,2-benzisothiazol-3-yl}-p-tolyl}oxy}-2-methyl-, 2-methoxy-1-methylethyl ester] was tested. Which “herbicidal effect rating, CYPSE” value [1, 10] did it give?
**A.** 0.0

**Q.** And the “herbicidal effect rating, CYPSE” value [1, 11]?
**A.** 0.0

**Q.** And the “herbicidal effect rating, CYPSE” value [1, 12]?
**A.** 0.0

**Q.** And the “herbicidal effect rating, CYPSE” value [1, 13]?
**A.** 0.0

**Q.** And the “herbicidal effect rating, ECHORC” value [2, 10]?
**A.** 9.0

**Q.** What about the “herbicidal effect rating, ECHORC” value [2, 11] of the same compound?
**A.** 9.0

**Q.** And the “herbicidal effect rating, ECHORC” value [2, 12]?
**A.** 9.0

**Q.** What about the “herbicidal effect rating, ECHORC” value [2, 13] of the same compound?
**A.** 9.0

**Q.** What about the “herbicidal effect rating ORYSAT” value [3, 10] of the same compound?
**A.** 0.0

**Q.** What about the “herbicidal effect rating ORYSAT” value [3, 11] of the same compound?
**A.** 0.0

**Q.** And the “herbicidal effect rating ORYSAT” value [3, 12]?
**A.** 0.0

**Q.** What about the “herbicidal effect rating ORYSAT” value [3, 13] of the same compound?
**A.** 2.0

**Q.** What about the “herbicidal effect rating, SAGPY” value (Sagittaria pygmaea, L.; [10]) of the same compound?
**A.** 0.0

**Q.** What about the “herbicidal effect rating, SAGPY” value (Sagittaria pygmaea, L.; [11]) of the same compound?
**A.** 0.0

**Q.** And the “herbicidal effect rating, SAGPY” value (Sagittaria pygmaea, L.; [12])?
**A.** 0.0

**Q.** And the “herbicidal effect rating, SAGPY” value (Sagittaria pygmaea, L.; [13])?
**A.** 9.0

**Q.** What about the “herbicidal effect rating, CYPIR” value (Cyperus iria; [10]) of the same compound?
**A.** 9.0

**Q.** And the “herbicidal effect rating, CYPIR” value (Cyperus iria; [11])?
**A.** 9.0

**Q.** What about the “herbicidal effect rating, CYPIR” value (Cyperus iria; [12]) of the same compound?
**A.** 9.0

**Q.** And the “herbicidal effect rating, CYPIR” value (Cyperus iria; [13])?
**A.** 9.0

**Q.** And the “herbicidal effect rating, MOOVA” value [4, 10]?
**A.** 9.0

**Q.** What about the “herbicidal effect rating, MOOVA” value [4, 11] of the same compound?
**A.** 9.0

**Q.** What about the “herbicidal effect rating, MOOVA” value [4, 12] of the same compound?
**A.** 9.0

**Q.** What about the “herbicidal effect rating, MOOVA” value [4, 13] of the same compound?
**A.** 9.0
